Where two headings read alike, the source gives them in different places.
How the values were obtained:
Tacr2 [1] = biological target: T1, Tacr2 (Homo sapiens, UniProt P21452); conditions: Sp Hs; cited from earlier work
T1 sequence (P21452 1-398): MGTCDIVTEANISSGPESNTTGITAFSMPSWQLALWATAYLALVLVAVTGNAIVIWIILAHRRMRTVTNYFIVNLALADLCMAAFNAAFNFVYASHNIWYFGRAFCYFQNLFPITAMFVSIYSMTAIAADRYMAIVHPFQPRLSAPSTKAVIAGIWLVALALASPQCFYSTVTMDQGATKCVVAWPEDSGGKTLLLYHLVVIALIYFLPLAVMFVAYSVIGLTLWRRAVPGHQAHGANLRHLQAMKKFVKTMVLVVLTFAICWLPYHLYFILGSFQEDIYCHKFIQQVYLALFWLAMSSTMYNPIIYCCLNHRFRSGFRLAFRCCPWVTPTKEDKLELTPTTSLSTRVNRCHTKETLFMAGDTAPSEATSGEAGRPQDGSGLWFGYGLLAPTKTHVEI

mTacr2 [2] = biological target: T2, mTacr2 (Mus musculus, UniProt P30549); experiment: IP3 assay in transfected HEK293 cells; assay type: cell-based
T2 construct: host or cells: HEK293
T2 sequence (P30549 1-384): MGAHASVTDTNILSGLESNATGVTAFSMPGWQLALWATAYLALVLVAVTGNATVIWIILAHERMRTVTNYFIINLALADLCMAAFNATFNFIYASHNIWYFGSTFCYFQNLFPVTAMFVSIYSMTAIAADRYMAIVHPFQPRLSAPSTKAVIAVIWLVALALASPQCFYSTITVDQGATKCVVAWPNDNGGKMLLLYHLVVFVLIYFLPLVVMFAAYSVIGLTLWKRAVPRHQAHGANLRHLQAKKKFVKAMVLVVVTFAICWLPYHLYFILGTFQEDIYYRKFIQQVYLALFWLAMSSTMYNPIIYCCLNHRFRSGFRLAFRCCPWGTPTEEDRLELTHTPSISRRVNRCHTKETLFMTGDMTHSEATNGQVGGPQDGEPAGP
Procedure: (§1) HEK293 cells were transiently transfected with plasmid (pcDNA3.1, Genscript, NJ, USA) encoding human or mouse Tacr1-3 using Lipofectamine 2000 (Thermo Fisher, Denmark). After six hours of transfection, cells were loaded with 5 μCi myo-[3H]inositol (Perkin Elmer, Denmark) in full maintenance and cultured overnight. […] After treatment, cells were extracted with 10 mM formic acid and cell membranes were captured using poly-L-lysine coated SPA beads (Perkin Elmer, Denmark), and analyzed on Top Counter (Perkin Elmer, Denmark).
(§2) Data was analyzed using GraphPad Prism 7 (GraphPad, CA, USA),using 4 parametric logistic curve fitting. The data analysis included calculation of the top value, the bottom value, the hill slope as well as the log EC50.

mTacr2 [3] = biological target: T2, mTacr2; experiment: IP3 assay with 0.2% or 2% BSA (BSA binding); assay type: cell-based; conditions: for EC50: printed as log EC50 with negative sign
Procedure: as §1, §2

mouse Tacr2 = biological target: T3, mouse Tacr2 (Mus musculus, UniProt P30549); experiment: IP3 assay in primary brown adipocytes transfected with Tacr2; assay type: cell-based; conditions: 24 hours NKA treatment; Tacr2 over-expressing primary brown adipocytes; FIG. 3a
T3 construct: host or cells: primary brown adipocytes
T3 sequence (P30549 1-384): T2 sequence (P30549 1-384)
Procedure: Primary brown pre-adipocytes were isolated from intrascapular brown fat pads by collagenase type 1 (Worthington, NJ, USA) digestion on horizontal shaking water bath at 37° C. for 50 minutes with vortexing every 10 minutes. Collagenase was diluted in KRB with free fatty acid free BSA (Sigma-Aldrich, Denmark) in a ratio of 1:10. The enzymatic reaction was stopped by addition of growth media, and cell suspension was pelleted, resuspended in growth media before straining through a 40 μm nylon mesh (VWR, Denmark) to avoid tissue clumps. Pre-adipocytes were expanded in DMEM (Gibco, Denmark) supplemented with 10% fetal bovine serum (Invitrogen, Denmark) and 1% penicillin and streptomycin (Lonza, Denmark) until confluency. […]
Primary brown adipocytes were loaded with 5 μCi myo-[3H]inositol (Perkin Elmer, Denmark) in full maintenance media at the day after electroporation, and incubated overnight. […] After treatment, cells were extracted with 10 mM formic acid and cell membranes were captured using poly-L-lysine coated SPA beads (Perkin Elmer, Denmark), and analyzed on Top Counter (Perkin Elmer, Denmark).
(§3) Oxygen consumption was measured using the Seahorse XF-96 Flux Analyzer (Seahorse Bioscience, Denmark). […] All readings were performed over a two minutes period and mixing was performed for three minutes. […]

primary brown adipocytes = experiment: Oxygen consumption rate, Seahorse XF-96 Flux Analyzer; assay type: cell-based; conditions: 72 hours NKA treatment; primary brown adipocytes not transfected with Tacr2; FIG. 3b
Procedure: Primary brown pre-adipocytes were isolated from intrascapular brown fat pads by collagenase type 1 (Worthington, NJ, USA) digestion on horizontal shaking water bath at 37° C. for 50 minutes with vortexing every 10 minutes. Collagenase was diluted in KRB with free fatty acid free BSA (Sigma-Aldrich, Denmark) in a ratio of 1:10. The enzymatic reaction was stopped by addition of growth media, and cell suspension was pelleted, resuspended in growth media before straining through a 40 μm nylon mesh (VWR, Denmark) to avoid tissue clumps. Pre-adipocytes were expanded in DMEM (Gibco, Denmark) supplemented with 10% fetal bovine serum (Invitrogen, Denmark) and 1% penicillin and streptomycin (Lonza, Denmark) until confluency. The day after reach of confluency, primary brown pre-adipocytes were differentiated using a cocktail consisting of insulin (0.5 mg/mL), rosiglitazone (1 mM), dexamethasone (100 μM), IBMX (50 mM) and T3 (1 μM) for two days, thereafter cells were maintained in growth media containing insulin and T3 throughout the experimental period. Maintenance media was changed every second day. Cells were grown at 37° C. with 10% CO2.
as §3

[4] = tested on: diet induced obese (DIO) mice; experiment: Neurokinin A treatment of diet induced obese mice; assay type: in vivo, mice (male C57Bl/6)
Procedure: (§4) Oxygen consumption was measured every 5 minutes using the PhenoMaster. Data is representative of all days and show means±SEM of n=6. (b) Weight was measured every day throughout the experimental period. […] (c) Insulin tolerance test was performed in 3h fasted mice the day after treatment, and mice received 1 UI per kg lean body mass insulin intraperitoneal. […] (d) The three major adipose tissues were harvested weighed upon termination of experiment.
All animal experiments were performed according to Danish animal legislation, with ad libitum access to food and water and 12 hour light-dark cycle. Male C57Bl/6 mice were purchased from Janvier (Denmark) at four weeks of age and acclimatized for one week prior to experimentation. For high fat diet studies, male C57Bl/6 mice were housed at room temperature and fed a 60% high fat diet (Research diets, D12492, Denmark) for 18 weeks. After being fed this diet, the mice were highly obese, typically having a body weight in the range of 42 to 45 g. These mice may also be referred to as diet induced obese (DIO) mice. Mice were randomized according to their weight and body composition measured by MRI scan (EchoMRI, TX, USA) before single-housing for at least one week prior treatment. Oxygen consumption and […] (RER) were measured using PhenoMaster (TSE-Systems, Germany). Food consumption was manually assessed every second day.
For treatment, NKA was diluted in Gelofusine® (B. Braun, DK) prior to subcutaneous injection. Mice were treated twice daily for 9 days.

[5] = tested on: diet induced obese (DIO) mice; experiment: Insulin tolerance test after Neurokinin A treatment; assay type: in vivo, mice (male C57Bl/6); conditions: vs control mice
Procedure: as §4
Mice were fasted for 3 hours prior to intra peritoneal insulin tolerance test (IPITT). Insulin (Actrapid, Novo Nordisk, DK) was dosed at 1 IU per kg lean body mass measured prior to treatment. Blood glucose was determined using glucometer from Roche. Lower blood glucose levels indicate greater insulin sensitivity.

Tacr2 [6] = biological target: T4, Tacr2 (Rattus norvegicus, UniProt P16610); conditions: Sp Rn; cited from earlier work
T4 sequence (P16610 1-390): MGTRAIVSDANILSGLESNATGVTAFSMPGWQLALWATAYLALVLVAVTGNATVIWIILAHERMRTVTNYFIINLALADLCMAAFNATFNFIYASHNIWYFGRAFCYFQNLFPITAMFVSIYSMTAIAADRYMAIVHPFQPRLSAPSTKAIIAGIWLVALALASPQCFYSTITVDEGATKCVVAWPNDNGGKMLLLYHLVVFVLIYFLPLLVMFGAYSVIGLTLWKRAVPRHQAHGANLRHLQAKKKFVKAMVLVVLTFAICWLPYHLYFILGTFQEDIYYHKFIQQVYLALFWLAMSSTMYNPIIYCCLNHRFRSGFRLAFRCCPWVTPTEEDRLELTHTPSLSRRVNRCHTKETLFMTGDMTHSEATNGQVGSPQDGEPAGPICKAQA

human brown adipose = conditions: cited from earlier work
Tacr2 [7] = biological target: T4, Tacr2; conditions: Sp Rn; cited from earlier work; remark: listed apart in the source
Tacr2 [8] = conditions: Sp Cp; cited from earlier work

Compound: CSCC[C@H](NC(=O)[C@H](CC(C)C)NC(=O)CNC(=O)[C@@H](NC(=O)[C@H](Cc1ccccc1)NC(=O)[C@H](Cc1ccccc1)NC(=O)[C@H](CC(=O)O)NC(=O)[C@H](Cc1c[nH]cn1)NC(=O)[C@H](CCSC)NC(=O)[C@@H](N)CC(=O)O)C(C)C)C(N)=O [NKB, neurokinin B]
- Affinity (Tacr2 [1]): 5.0-7.7 pKi

Compound: hemokinin 1 (RSRTRQFYGLM; Hemokinin; UniProt Q99N14 56-66, looked up) [mammalian tachykinin (Mouse)]
- Affinity (Tacr2 [1]): 6.3 pKi

Compound: CSCC[C@H](NC(=O)[C@H](CC(C)C)NC(=O)CNC(=O)[C@@H](NC(=O)[C@H](Cc1ccccc1)NC(=O)[C@H](CO)NC(=O)[C@H](CC(=O)O)NC(=O)[C@@H](NC(=O)[C@H](CCCCN)NC(=O)[C@@H](N)Cc1cnc[nH]1)[C@@H](C)O)C(C)C)C(N)=O [NKA, Neurokinin A]
- EC50 (mTacr2 [2]): 8.09 nM
- EC50 (mTacr2 [3]; LogEC50, mTacr2, 0.2% BSA): 3.54 nM
- EC50 (mTacr2 [3]; LogEC50, mTacr2, 2% BSA): 12.3 nM
- BSA binding affinity (mTacr2 [3]; from Tacr2 activation at 0.2% vs 2% BSA): low BSA binding affinity
- Hill-Slope (mTacr2 [3]; mTacr2, 0.2% BSA): 1.082
- Top (mTacr2 [3]; mTacr2, 0.2% BSA): 1788
- Bottom (mTacr2 [3]; mTacr2, 2% BSA): 111.3
- Hill-Slope (mTacr2 [3]; mTacr2, 2% BSA): 0.8378
- Top (mTacr2 [3]; mTacr2, 2% BSA): 1719
- IP3 levels (mouse Tacr2): increases IP3 levels
- oxygen consumption rate (OCR) (primary brown adipocytes): increases oxygen consumption rate (OCR)
- metabolic parameters ([4]; 1 mg/kg NKA s.c. twice daily for 9 days): improved metabolic parameters
- calorie burning (oxygen consumption) ([4]; 1 mg/kg NKA s.c. twice daily for 9 days, FIG. 4a): increased calorie burning
- body weight ([4]; 1 mg/kg NKA s.c. twice daily for 9 days, FIG. 4b): significant reduction in body weight
- desensitization to NKA ([4]; 9 consecutive days of treatment, FIG. 4a): not accompanied by desensitization to NKA
- adipose tissue weight ([4]; tissues harvested upon termination, FIG. 4d): reduction of white adipose tissue and not brown fat
- blood glucose level after insulin treatment (ITT) ([5]; 3 h fasted, 1 IU insulin per kg lean body mass i.p., day after treatment, FIG. 4c): significant lower blood glucose level after insulin treatment
- insulin sensitivity (ITT) [5]: higher insulin sensitivity
- return of blood glucose to basal levels after Cmin (ITT) [5]: return to basal levels at a slower rate

Compound: [Lys5,Me-Leu9, Nle10]NKA-(4-10) [[Lys5,Me-Leu9,Nle10]NKA-(4-10), DKFVGXJ, X = Me-Leu; J = Nle]
- Affinity (Tacr2 [6]): 8.8-9.4 pIC50

Compound: [βAla8]neurokinin A-(4-10)
- Affinity (Tacr2 [1]): 6.0 pKd

Compound: Nc1nc(CC(=O)Nc2ccc(CCNC[C@H](O)c3ccccc3)cc2)cs1 [Mirabegron]
- activation of human brown adipose (human brown adipose; proof-of-concept studies): activate human brown adipose
- blood pressure and heart rate (human brown adipose; side effects): elevated blood pressure and heart rate

Compound: Neurokinin A (3-10) [GR64349, Neurokinin A (3-10) [Lys3, Gly8-(R)-γ-Lactam-Leu9]]
- Affinity (Tacr2 [7]): 8.4 pEC50

Compound: neuropeptide K (DADSSIEKQVALLKALYGHGQISHKRHKTDSFVGLM; Neuropeptide K; UniProt P20366 72-107, looked up) [natural agonist of Tacr2 (Human, Rat)]
- Affinity (Tacr2 [8]): 8.8 pEC50

Compound: neuropeptide γ
- Affinity (Tacr2 [8]): 9.5 pEC50

Reference: patent US20240124524A1, “Agonist of Tacr2” (University of Copenhagen, priority 2019, published 2024)
